The target of test [1] is CDK-9/Cyclin T1 (Homo sapiens, UniProt P50750). The test can be described thus: CDK inhibition assay, CDK-9/Cyclin T1 against substrate peptide, 33P-ATP. It is filed as biochemical. To be noted: at 500 nM. Here is the method:
(50-1000 cpm/pmole) and incubated for 30 min at room temperature. Assays were stopped by addition of 5 µl of 0.5 M (3%) orthophosphoric acid and then harvested onto P81 Unifilter plates with a wash buffer of 50 mM orthophosphoric acid.

Test [2] has as its system MCF-7. The test can be described thus: MTT assay on cancer cell line MCF-7. The conditions noted are these: for inhibition at 10 µM: Homo sapiens; for In vitro cell inhibition, % of inhibition, MCF-7: at 10µM. It is filed as cell-based, Human. Here is the method: (§1) Cell culture, growth conditions and treatments. […] Different molecules were dissolved in DMSO and were delivered to cell cultures in complete medium.

The subject of test [3] is PC-3. Nature of the test: MTT assay on cancer cell line PC-3. It is filed as cell-based, human. The conditions noted are these: for inhibition at 10 µM: Homo sapiens, read-out: In vitro cell inhibition, % of inhibition, PC-3; for In vitro cell inhibition, % of inhibition, PC-3: at 10µM. The protocol:
as §1
For orientation: Tetrazolium dyes change colour on reduction, which living cells bring about.

In test [4] the test system is MDA-MB435. The test can be described thus: MTT assay on cancer cell line MDA-MB435. It is filed as cell-based, Human. The conditions noted are these: MDA-MB435, at 10µM; for inhibition at 10 µM: Homo sapiens, MDA-MB-435, read-out: In vitro cell inhibition, % of inhibition, MDA-MB435. The protocol: as §1
In test [5] the test system is SHSY-5Y. Nature of the test: MTT assay on cancer cell line SHSY-5Y. The format is cell-based, human. The conditions noted are these: for inhibition at 10 µM: Homo sapiens, SH-SY5Y; for In vitro cell inhibition, % of inhibition, SHSY-5Y: at 10µM. Here is the method: as §1
Test [6] deals with CDK-2/cyclin A (Homo sapiens, UniProt P24941). The test can be described thus: CDK inhibition assay, CDK-2/cyclin A against Histone HI, 33P-ATP. It is filed as biochemical. The conditions noted are these: at 500 nM. The essentials:
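CDK-2/cyclin A (5-20 mU) phosphorylating Histone HI (1 mg/ml) in 50 mM Hepes pH 7.5, 100 mM NaCl, 10 mM Mg acetate, 0.02 mM [33P-γ-ATP], 30 min at room temperature. Stopped with orthophosphoric acid, captured on P81 filters for radiometric readout.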

For test [7], the system named is HCT-116. Nature of the test: MTT assay on cancer cell line HCT-116. It is filed as cell-based, human. The conditions noted are these: at 10µM; for inhibition at 10 µM: Homo sapiens, read-out: In vitro cell inhibition, % of inhibition, HCT-116. The protocol: as §1
The mark [8] stands for this setting: Table-7, read-out: In vitro CDK9 % of inhibition.
The mark [9] stands for this setting: read-out: inhibition against CDK9.
Setting [10] is: MCF7, MCF-7, Table 9 (for reference), read-out: In vitro cell inhibition, % of inhibition, MCF-7.
Setting [11] is: MCF7, read-out: inhibition against MCF-7 cell lines.
The mark [12] stands for this setting: SHSY-5Y, Table 9 (for reference), read-out: In vitro cell inhibition, % of inhibition, SHSY-5Y.
The mark [13] stands for this setting: read-out: inhibition against SHSY-5Y cell lines.
Where [14] appears, read: Table-7, read-out: In vitro CDK2 % of inhibition.
Where [15] appears, read: read-out: inhibition against CDK2.

Like-named read-outs stand apart in the source and are kept apart here.

Sequence of CDK-9/Cyclin T1 (P50750 whole entry): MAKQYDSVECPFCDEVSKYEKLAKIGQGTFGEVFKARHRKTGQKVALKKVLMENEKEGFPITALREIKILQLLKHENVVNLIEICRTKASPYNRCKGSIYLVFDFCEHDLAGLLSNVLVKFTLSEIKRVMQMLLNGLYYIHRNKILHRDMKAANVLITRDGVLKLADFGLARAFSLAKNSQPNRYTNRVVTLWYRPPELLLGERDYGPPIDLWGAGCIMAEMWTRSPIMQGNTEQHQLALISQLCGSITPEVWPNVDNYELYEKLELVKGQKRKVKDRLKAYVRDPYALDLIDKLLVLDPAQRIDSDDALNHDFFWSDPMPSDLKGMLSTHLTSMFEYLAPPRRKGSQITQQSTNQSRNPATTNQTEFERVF
Sequence of CDK-9/Cyclin T1 (O60563 whole entry partner): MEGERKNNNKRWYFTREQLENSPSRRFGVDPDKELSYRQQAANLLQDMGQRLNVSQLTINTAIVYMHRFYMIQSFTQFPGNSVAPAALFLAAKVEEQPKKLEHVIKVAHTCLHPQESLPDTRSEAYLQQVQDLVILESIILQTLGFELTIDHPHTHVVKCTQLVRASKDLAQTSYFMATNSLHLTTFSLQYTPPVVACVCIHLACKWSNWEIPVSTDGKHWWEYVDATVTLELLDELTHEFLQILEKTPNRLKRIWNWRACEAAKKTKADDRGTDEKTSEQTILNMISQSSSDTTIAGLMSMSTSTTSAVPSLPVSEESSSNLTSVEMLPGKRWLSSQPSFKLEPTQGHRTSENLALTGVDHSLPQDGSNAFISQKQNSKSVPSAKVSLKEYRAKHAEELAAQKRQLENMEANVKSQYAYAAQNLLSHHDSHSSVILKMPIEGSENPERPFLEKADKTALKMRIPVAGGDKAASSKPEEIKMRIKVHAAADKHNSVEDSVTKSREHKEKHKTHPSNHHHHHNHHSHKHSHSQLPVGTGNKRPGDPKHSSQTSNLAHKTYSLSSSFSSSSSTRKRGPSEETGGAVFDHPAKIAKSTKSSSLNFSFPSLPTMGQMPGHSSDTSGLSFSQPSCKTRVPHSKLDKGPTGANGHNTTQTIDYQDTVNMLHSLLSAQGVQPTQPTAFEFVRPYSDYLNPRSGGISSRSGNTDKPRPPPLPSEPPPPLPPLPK

As to `Cc1cccc(-c2cnc3[nH]cc(-c4ccnc(N)n4)c3c2)c1` [1C7, 4-(5-(m-tolyl)-1H-pyrrolo[2,3-b]pyridin-3-yl)pyrimidin-2-amine], the inhibition at 0.5 µM in test [1] (setting [8]), in test [1] (setting [9]), in test [6] (setting [14]) and in test [6] (setting [15]) was above 70% each time. In addition, the inhibition (in general, the percentage by which the read-out fell short of the control) at 10 µM is above 50% in test [2] (setting [10]); above 50% in test [2] (setting [11]); above 50% in test [3] (Table 9 (for reference)); above 70% in test [4] (Table 9 (for reference)); above 70% in test [5] (setting [12]); above 70% in test [5] (setting [13]). Moreover, the inhibition at 10 µM in test [7] (Table 9 (for reference)) is above 70%.
For the compound `Nc1nccc(-c2c[nH]c3ncc(-c4cccc(C(F)(F)F)c4)cc23)n1` [1C4, 4-(5-(3-(trifluoromethyl)phenyl)-1H-pyrrolo[2,3-b]pyridin-3-yl)pyrimidin-2-amine], the inhibition at 0.5 µM in test [1] (setting [8]), in test [1] (setting [9]), in test [6] (setting [14]) and in test [6] (setting [15]) was above 70% each time. The inhibition at 10 µM in test [2] (setting [10]) is above 70%; in test [2] (setting [11]) it was above 70%; in test [3] (Table 9 (for reference)) it was below 50%; in test [4] (Table 9 (for reference)) it was above 70%; in test [5] (setting [12]), above 70%; in test [5] (setting [13]), above 70%. In addition, the inhibition at 10 µM in test [7] (Table 9 (for reference)) is above 70%.
In the case of `Nc1nccc(-c2c[nH]c3ncc(-c4cccc(F)c4)cc23)n1` [1C5, 4-(5-(3-fluorophenyl)-1H-pyrrolo[2,3-b]pyridin-3-yl)pyrimidin-2-amine], the inhibition at 10 µM was above 70% in test [2] (setting [10]); above 70% in test [2] (setting [11]); below 50% in test [3] (Table 9 (for reference)); above 70% in test [4] (Table 9 (for reference)); above 70% in test [5] (setting [12]); above 70% in test [5] (setting [13]). Moreover, the inhibition at 10 µM in test [7] (Table 9 (for reference)) was above 70%.
As to `Nc1nccc(-c2c[nH]c3ncc(-c4cc5ccccc5[nH]4)cc23)n1` [1C19, 4-(5-(1H-indol-2-yl)-1H-pyrrolo[2,3-b]pyridin-3-yl)pyrimidin-2-amine], the inhibition at 10 µM in test [2] (setting [10]) is above 50%; in test [2] (setting [11]), above 70%; in test [3] (Table 9 (for reference)) it was below 50%; in test [4] (Table 9 (for reference)), above 50%; in test [5] (setting [12]) it was above 70%; in test [5] (setting [13]), above 70%. Further, the inhibition at 10 µM in test [7] (Table 9 (for reference)) is above 50%.
Regarding `Nc1nccc(-c2c[nH]c3ncc(-c4nccc5ccccc45)cc23)n1` [1C20, 4-(5-(isoquinolin-1-yl)-1H-pyrrolo[2,3-b]pyridin-3-yl)pyrimidin-2-amine], the inhibition at 10 µM was above 50% in test [2] (setting [10]); above 50% in test [2] (setting [11]); above 50% in test [3] (Table 9 (for reference)); above 50% in test [4] (Table 9 (for reference)); above 50% in test [5] (setting [12]); above 70% in test [7] (Table 9 (for reference)).
In the case of `Cc1ccc(-c2cnc3[nH]cc(-c4ccnc(N)n4)c3c2)cc1` [1C6, 4-(5-(p-tolyl)-1H-pyrrolo[2,3-b]pyridin-3-yl)pyrimidin-2-amine], the inhibition at 10 µM was above 70% in test [2] (setting [10]); above 70% in test [2] (setting [11]); above 50% in test [3] (Table 9 (for reference)); above 70% in test [4] (Table 9 (for reference)); above 70% in test [5] (setting [12]); above 70% in test [5] (setting [13]). Besides, the inhibition at 10 µM in test [7] (Table 9 (for reference)) is above 70%.
For `Nc1nccc(-c2c[nH]c3ncc(-c4ccc(C=O)cc4)cc23)n1` [1C13, 4-(3-(2-aminopyrimidin-4-yl)-1H-pyrrolo[2,3-b]pyridin-5-yl)benzaldehyde], the inhibition at 10 µM in test [2] (setting [10]), in test [2] (setting [11]), in test [3] (Table 9 (for reference)), in test [4] (Table 9 (for reference)), in test [5] (setting [12]) and in test [7] (Table 9 (for reference)) was above 50% in each case.
For `Nc1nccc(-c2c[nH]c3ncc(-c4cc5ccccc5s4)cc23)n1` [1C18, 4-(5-(benzo[b]thiophen-2-yl)-1H-pyrrolo[2,3-b]pyridin-3-yl)pyrimidin-2-amine], the inhibition at 10 µM in test [2] (setting [10]) is above 70%; in test [3] (Table 9 (for reference)), above 70%; in test [4] (Table 9 (for reference)), below 50%; in test [5] (setting [12]), above 70%; in test [5] (setting [13]), above 70%; in test [7] (Table 9 (for reference)), above 70%.
Turning to `Nc1nccc(-c2c[nH]c3ncc(-c4cccnc4)cc23)n1` [1C15, 4-(5-(pyridin-3-yl)-1H-pyrrolo[2,3-b]pyridin-3-yl)pyrimidin-2-amine], the inhibition at 10 µM is above 70% in test [2] (setting [10]); above 70% in test [2] (setting [11]); below 50% in test [3] (Table 9 (for reference)); above 70% in test [4] (Table 9 (for reference)); above 70% in test [5] (setting [12]); above 70% in test [5] (setting [13]). Moreover, the inhibition at 10 µM in test [7] (Table 9 (for reference)) is above 50%.
As to `Nc1nccc(-c2c[nH]c3ncc(-c4ccoc4)cc23)n1` [1C16, 4-(5-(furan-3-yl)-1H-pyrrolo[2,3-b]pyridin-3-yl)pyrimidin-2-amine], the inhibition at 10 µM is above 70% in test [2] (setting [10]); above 70% in test [2] (setting [11]); below 50% in test [3] (Table 9 (for reference)); above 70% in test [4] (Table 9 (for reference)); above 70% in test [5] (setting [12]); above 70% in test [5] (setting [13]). For the same compound, in test [7] (Table 9 (for reference)), the inhibition at 10 µM was above 70%.
For `Nc1nccc(-c2c[nH]c3ncccc23)n1` [Meriolin 1, reference compound], the “In vitro CDK9 % of inhibition” value in test [1] (Table-6) is reported as “+++ (+++ indicates greater than 70% of inhibition (+++ >70% of inhibition))”. Besides, the “In vitro cell inhibition, % of inhibition, MCF-7” value was “++ (++ indicates greater than 50% of inhibition (++ >50% of inhibition))” in test [2] (Table 8) and “++ (++ indicates greater than 50% of inhibition (++ > 50% of inhibition))” in test [2] (Table 9 (for reference)). Further, the “In vitro cell inhibition, % of inhibition, PC-3” value in test [3] (Table 8) was “++ (++ indicates greater than 50% of inhibition (++ >50% of inhibition))”; in test [3] (Table 9 (for reference)), “++ (++ indicates greater than 50% of inhibition (++ > 50% of inhibition))”. Also, the “In vitro cell inhibition, % of inhibition, MDA-MB435” value in test [4] (Table 8) was “++ (++ indicates greater than 50% of inhibition (++ >50% of inhibition))”; in test [4] (Table 9 (for reference)), “++ (++ indicates greater than 50% of inhibition (++ > 50% of inhibition))”. Besides, the “In vitro cell inhibition, % of inhibition, SHSY-5Y” value in test [5] (SHSY-5Y, Table 8) is recorded as “+++ (+++ indicates greater than 70% of inhibition (+++ >70% of inhibition))”; in test [5] (SHSY-5Y, Table 9 (for reference)) it was “+++ (+++ indicates greater than 70% of inhibition (+++ >70% of inhibition))”. Also, the figures for the “In vitro cell inhibition, % of inhibition, HCT-116” value in test [7] (Table 8) and in test [7] (Table 9 (for reference)) were “++ (++ indicates greater than 50% of inhibition (++ >50% of inhibition))” and “++ (++ indicates greater than 50% of inhibition (++ > 50% of inhibition))”, respectively.
Take `Nc1nccc(-c2c[nH]c3ncc(-c4ccc(C(F)(F)F)cc4)cc23)n1` [1C1, 4-(5-(4-(trifluoromethyl)phenyl)-1H-pyrrolo[2,3-b]pyridin-3-yl)pyrimidin-2-amine]: the inhibition at 10 µM was above 50% in test [2] (setting [10]); above 50% in test [2] (setting [11]); above 50% in test [3] (Table 9 (for reference)); below 50% in test [4] (Table 9 (for reference)); above 50% in test [5] (setting [12]); above 50% in test [7] (Table 9 (for reference)).
Regarding `COc1ccc(-c2cnc3[nH]cc(-c4ccnc(N)n4)c3c2)cc1` [1C11, 4-(5-(4-methoxyphenyl)-1H-pyrrolo[2,3-b]pyridin-3-yl)pyrimidin-2-amine], the inhibition at 10 µM in test [2] (setting [10]) is above 50%; in test [2] (setting [11]), above 50%; in test [3] (Table 9 (for reference)), below 50%; in test [4] (Table 9 (for reference)) it was above 70%; in test [5] (setting [12]), above 70%; in test [5] (setting [13]) it was above 70%. The inhibition at 10 µM in test [7] (Table 9 (for reference)) is above 70%.
